The results in this text go back to US10258043B2, “Pesticide compositions and methods for controlling invertebrate pests” (Adama Makhteshim Ltd., priority 2012, dated 2019).

The assay relates to German cockroaches. Nature of the assay: Second series of evaluations: pyriproxyfen and novaluron alone and in combination on three substrates. Conditions: preliminary results. Format: in vivo. On the procedure: Ceramic tile, vinyl tile, and unpainted plywood panels measuring 6″×6″ were cleaned using soapy water to remove any residue left over from the manufacturing process and left to dry overnight. Six (6) L plastic storage boxes (Sterlite®) with lids were purchased from a local hardware store (Home Depot, Riverbank, Calif.) and cleaned as well and allowed to dry. Each substrate was treated with 0.95 mL of test material (1 gallon/1,000 ft^2 equivalent) prepared in accordance with Example 1 using a Pipetteman 1000, with the material being evenly distributed over the entire surface of the substrate using an acid brush. The material was allowed to dry and the substrates were placed into the plastic storage boxes, one per box. A 5 cm Petri dish was filled with dog food and a slice of orange for nourishment, and a water tube was added for moisture. The food dish was placed directly on the treated substrate to force exposure of the cockroaches. A 6″ rolled piece of corrugated cardboard was placed in each replicate for harborage. A thin layer of petroleum jelly/mineral oil was applied to the rim to prevent escape.
Approximately forty (40) second and third instar nymphs were placed in each replicate and the lid was placed on top. Five replicates were prepared, one for each of the four treatments set forth in Table 2 and an untreated control. […]

As for `O=C(NC(=O)c1c(F)cccc1F)Nc1ccc(OC(F)(F)C(F)OC(F)(F)F)c(Cl)c1` (racemic) [novaluron, (RS)-1-[3-chloro-4-(1,1,2-trifluoro-2-trifluoromethoxyethoxy)phenyl]-3-(2,6-difluorobenzoyl)urea], the “Molting abnormalities of mid-instar cockroaches” value (all three substrates) is listed as “molting abnormalities”.
Consider `CC(COc1ccc(Oc2ccccc2)cc1)Oc1ccccn1` (centres unmarked) [pyriproxyfen, 4-phenoxyphenyl 2-(2-pyridyloxy)propyl ether], for which the “Morphological characteristics of juvenoid activity” value (individuals alive in these treatment groups) is “twisted wings and darkened cuticle”.
